Source: ChEMBL document CHEMBL4184243, “Optimization of antimalarial, and anticancer activities of (E)-methyl 2-(7-chloroquinolin-4-ylthio)-3-(4-hydroxyphenyl) acrylate” (Bioorg Med Chem, 2018)
pIC50: −log10 of the molar value.

How the values were obtained:
Jurkat E6.1 [1] = test: Cytotoxicity against human Jurkat E6-1 cells after 24 hrs by MTT assay; assay type: functional, cell-based; settings: Jurkat E6.1, 24 h
HL-60 [2] = test: Induction of apoptosis in human HL60 cells assessed as early apoptotic cells at 5 uM after 24 hrs by Annexin-V-FITC/propidium iodide staining based flow cytometric analysis (reference value: 0.36 +/- 0.02 %); assay type: functional
Jurkat E6.1 [3] = test: Induction of apoptosis in human Jurkat E6-1 cells assessed as late apoptotic cells at 5 uM after 24 hrs by Annexin-V-FITC/propidium iodide staining based flow cytometric analysis (reference value: 0.73 +/- 0.14 %); assay type: functional
Jurkat E6.1 [4] = test: Induction of apoptosis in human Jurkat E6-1 cells assessed as necrotic cells at 5 uM after 24 hrs by Annexin-V-FITC/propidium iodide staining based flow cytometric analysis (reference value: 1.26 +/- 0.24 %); assay type: functional
HL-60 [5] = test: Induction of apoptosis in human HL60 cells assessed as late apoptotic cells at 5 uM after 24 hrs by Annexin-V-FITC/propidium iodide staining based flow cytometric analysis (reference value: 0.85 +/- 0.13 %); assay type: functional
Plasmodium berghei [6] = test: Antimalarial activity against chloroquine-susceptible Plasmodium berghei ANKA infected in Balb-C mouse assessed as mean survival days at 10 mg/kg, ip administered once daily for 4 days (reference value: 8.4 +/- 0.15 day); assay type: functional
[7] = Selectivity index, ratio of IC50 for human lymphocytes to IC50 for human HL60 cells; assay type: toxicity; settings: human lymphocytes versus HL60 cells, read-out: Ratio IC50
[8] = Selectivity index, ratio of IC50 for human lymphocytes to IC50 for human Jurkat E6-1 cells; assay type: toxicity; settings: human lymphocytes versus Jurkat E6-1 cells, read-out: Ratio IC50
Lymphocyte = test: Cytotoxicity against human lymphocytes after 24 to 48 hrs by MTT assay; assay type: cell-based
HL-60 [9] = test: Induction of apoptosis in human HL60 cells assessed as necrotic cells at 5 uM after 24 hrs by Annexin-V-FITC/propidium iodide staining based flow cytometric analysis (reference value: 1.96 +/- 0.33 %); assay type: functional
Jurkat E6.1 [10] = test: Induction of apoptosis in human Jurkat E6-1 cells assessed as early apoptotic cells at 5 uM after 24 hrs by Annexin-V-FITC/propidium iodide staining based flow cytometric analysis (reference value: 0.5 +/- 0.07 %); assay type: functional
[11] = Safety index, ratio of test compound IC50 to doxorubicin IC50 for human lymphocytes; assay type: ADME, cell-based, Lymphocyte; settings: read-out: Ratio IC50
HL-60 [12] = test: Cytotoxicity against human HL60 cells after 24 hrs by MTT assay; assay type: functional, cell-based; settings: HL-60, 24 h
Plasmodium berghei [13] = test: Antimalarial activity against chloroquine-susceptible Plasmodium berghei ANKA infected in Balb-C mouse assessed as parasitemia at 10 mg/kg, ip administered once daily for 4 days measured post last dose by Giemsa staining based method (reference value: 65.8 +/- 4.38%); assay type: functional
Mus musculus [14] = test: Toxicity in Balb-C mouse infected with chloroquine-susceptible Plasmodium berghei ANKA assessed as effect on body weight at 20 mg/kg, ip administered once daily for 4 days measured at 30 days post infection; assay type: organism-based; settings: in vivo, 720 h
Mus musculus [15] = test: Toxicity in Balb-C mouse infected with chloroquine-susceptible Plasmodium berghei ANKA assessed as survival at 20 mg/kg, ip administered once daily for 4 days measured at 30 days post infection; assay type: organism-based; settings: in vivo, 720 h
[16] = Inhibition of beta-hematin formation assessed as reduction in acetate buffer-initiated hemozoin formation measured after 48 hrs; parameters: concentration or dose not given beside the values; settings: concentration not given here

COC(=O)/C(=C\c1ccc(OC(=O)c2ccc(OC)c(OC)c2OC)cc1)Sc1ccnc2cc(Cl)ccc12
pIC50 (Jurkat E6.1 [1]): 5.62
Activity (HL-60 [2]): 0.75%
Activity (Jurkat E6.1 [3]): 4.12%
Activity (Jurkat E6.1 [4]): 55.6%
Activity (HL-60 [5]): 7.38%
MSD (Plasmodium berghei [6]): 29.83 days
selectivity ratio [7]: 10.8
selectivity ratio [8]: 9.27
pIC50 (Lymphocyte): 4.65
Activity (HL-60 [9]): 62.1%
Activity (Jurkat E6.1 [10]): 0.58%
selectivity ratio [11]: 5.1
pIC50 (HL-60 [12]): 5.68
Activity (Plasmodium berghei [13]): 1%
Activity (Mus musculus [14]): Non-Toxic
Activity (Mus musculus [15]): Non-Toxic
inhibition [16]: 85.1%
